Reference: patent US6777412B2 (priority 1990, dated 2004)
Where two headings read alike, the source gives them in different places. Marks after values point to notes of the source that are not given here.

Assays:
Format in all cases: in vivo
Puccinia recondita = test: Foliar fungal disease test on plants: Puccinia recondita (Pr)
Outline: (§1)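 Potted plants treated by foliar spray to maximum retention (100 ppm a.i. unless stated) plus root drench (~40 ppm a.i. in dry soil), with 0.05% Tween 20 on cereals, one or two days before spore-suspension inoculation.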

Erysiphe graminis hordei = test: Foliar fungal disease test on plants: Erysiphe graminis hordei (Egh)
Procedure: (§2) The compounds were tested against a variety of foliar fungal diseases of plants. The technique employed was as follows.
(§3) The plants were grown in John Innes Potting Compost (No.1 or 2) in 4 cm diameter minipots. The test compounds were formulated either by bead milling with aqueous Dispersol T or as a solution in acetone or acetone/ethanol which was diluted to the required concentration immediately before use. For the foliage diseases, the formulations (100 ppm active ingredient except where otherwise indicated) were sprayed onto the foliage and applied to the roots of the plants in the soil. The sprays were applied to maximum retention and the root drenches to a final concentration equivalent to approximately 40 ppm a.i. in dry soil. Tween 20, to give a final concentration of 0.05%, was added when the sprays were applied to cereals.
(§4) For most of the tests the compound was applied to the soil (roots) and to the foliage (by spraying) one or two days before the plant was inoculated with the disease. An exception was the test on Erysiphe graminis in which the plants were inoculated 24 hours before treatment. Foliar pathogens were applied by spray as spore suspensions onto the leaves of test plants. After inoculation, the plants were put into an appropriate environment to allow infection to proceed and then incubated until the disease was ready for assessment. The period between inoculation and assessment varied from four to fourteen days according to the disease and environment.
(§5) The disease control vas recorded by the following grading:
(§6) 3=trace-5% of disease on untreated plants
(§7) 2=6-25% of disease on untreated plants
(§8) 1=26-59% of disease on untreated plants
(§9) 0=60-100% of disease on untreated plants
Egh Erysiphe graminis hordei

Pyricularia oryzae = system: Pyricularia oryzae
Thanatephorus cucumeris = test: Foliar fungal disease test on plants: Thanatephorus cucumeris (Tc)
Procedure: as §2, §3, §4, §5, §6, §7, §8, §9
Tc Thanatephorus cucumeris

Venturia inaequalis = test: Foliar fungal disease test on plants: Venturia inaequalis (Vi)
Outline: as §1

Plasmopara viticola = test: Foliar fungal disease test on plants: Plasmopara viticola (Pv)
Outline: as §1

[1] = system: Phytophthora infestans lycopersici
Septoria nodorum = test: Foliar fungal disease test on plants: Septoria nodorum (Sn)
Procedure: as §2, §3, §4, §5, §6, §7, §8, §9

[2] = system: Erysiphe graminis tritici; test: Foliar fungal disease test on plants: Erysiphe graminis tritici (Egt)
Procedure: as §2, §3, §4, §5, §6, §7, §8, §9
Egt Erysiphe graminis tritici

[3] = 100 ppm active ingredient foliar spray plus root drench (approx. 40 ppm a.i. in dry soil), one or two days before inoculation
[4] = 100 ppm active ingredient foliar spray plus root drench (approx. 40 ppm a.i. in dry soil), plants inoculated 24 hours before treatment

SMILES | disease control grading, Pr (Puccinia recondita) (Puccinia recondita; [3]) | disease control grading, Egh (Erysiphe graminis hordei) (Erysiphe graminis hordei; [4]) | disease control grading, Po (Pyricularia oryzae) (Pyricularia oryzae; [3]) | disease control grading, Tc (Thanatephorus cucumeris) (Thanatephorus cucumeris; [3]) | disease control grading, Vi (Venturia inaegualis) (Venturia inaequalis; [3]) | disease control grading, Pv (Plasmopara viticola) (Plasmopara viticola; [3]) | disease control grading, Pil (Phytophthora infestans lycopersici) [1, 3] | disease control grading, Sn (Septoria nodorum) (Septoria nodorum; [3]) | disease control grading, Pr (Puccinia recondita) (Puccinia recondita; 10 ppm foliar application only) | disease control grading, Egh (Erysiphe graminis hordei) (Erysiphe graminis hordei; 10 ppm foliar application only) | disease control grading, Sn (Septoria nodorum) (Septoria nodorum; 10 ppm foliar application only) | disease control grading, Po (Pyricularia oryzae) (Pyricularia oryzae; 10 ppm foliar application only) | disease control grading, Tc (Thanatephorus cucumeris) (Thanatephorus cucumeris; 10 ppm foliar application only) | disease control grading, Vi (Venturia inaegualis) (Venturia inaequalis; 10 ppm foliar application only) | disease control grading, Pv (Plasmopara viticola) (Plasmopara viticola; 10 ppm foliar application only) | disease control grading, Pil (Phytophthora infestans lycopersici) ([1]; 10 ppm foliar application only) | disease control grading, Pr (Puccinia recondita) (Puccinia recondita; 100 ppm foliar application only) | disease control grading, Egt (Erysiphe graminis tritici) ([2]; 10 ppm foliar application only) | disease control grading, Egt (Erysiphe graminis tritici) [2, 4]
CO/C=C(/C(=O)OC)c1ccccc1Oc1cc(OC/C=C/c2ccccc2)ncn1 [376 of Table I] | 4 (4=no disease) | 4 (4=no disease) | 3 (3=trace-5% of disease on untreated plants) | 4 (4=no disease) | 4 (4=no disease) | 4 (4=no disease) | 4 (4=no disease) |  |  |  |  |  |  |  |  |  |  |  | 
CO/C=C(/C(=O)OC)c1ccccc1Oc1cc(OCc2c(F)cccc2Cl)ncn1 [386 of Table I] | 4 (4=no disease) | 4 (4=no disease) | 4 (4=no disease) | 4 (4=no disease) | 4 (4=no disease) | 4 (4=no disease) | 4 (4=no disease) | 4 (4=no disease) |  |  |  |  |  |  |  |  |  |  | 
CO/C=C(/C(=O)OC)c1ccccc1Oc1cc(OCc2ccccc2C(F)(F)F)ncn1 [385 of Table I] | 4 (4=no disease) | 4 (4=no disease) |  | 4 (4=no disease) | 4 (4=no disease) | 4 (4=no disease) | 4 (4=no disease) | 4 (4=no disease) |  |  |  |  |  |  |  |  |  |  | 
CO/C=C(/C(=O)OC)c1ccccc1Oc1cc(OCc2ccccc2[N+](=O)[O-])ncn1 [375 of Table I] | 4 (4=no disease) | 4 (4=no disease) | 4 (4=no disease) | 4 (4=no disease) | 3 (3=trace-5% of disease on untreated plants) | 3 (3=trace-5% of disease on untreated plants) | 0 (0=60-100% of disease on untreated plants) |  |  |  |  |  |  |  |  |  |  |  | 
CO/C=C(/C(=O)OC)c1ccccc1Oc1cc(OCCSc2ccccc2C#N)ncn1 [393 of Table I] | 4 (4=no disease) | 4 (4=no disease) | 4 (4=no disease) | 4 (4=no disease) | 0 (0=60-100% of disease on untreated plants) | 4 (4=no disease) | 4 (4=no disease) | 4 (4=no disease) |  |  |  |  |  |  |  |  |  |  | 
CO/C=C(/C(=O)OC)c1ccccc1Oc1cc(OCc2c(F)c(F)c(F)c(F)c2F)ncn1 [388 of Table I] | 4 (4=no disease) | 4 (4=no disease) | 4 (4=no disease) | 4 (4=no disease) | 4 (4=no disease) | 4 (4=no disease) | 4 (4=no disease) | 4 (4=no disease) |  |  |  |  |  |  |  |  |  |  | 
CO/C=C(/C(=O)OC)c1ccccc1Oc1cc(OCc2ccccc2C#N)ncn1 [389 of Table I] |  |  |  |  |  |  |  |  | 4^a (4=no disease) | 4^a (4=no disease) | 4^a (4=no disease) | 4^a (4=no disease) | 4^a (4=no disease) | 4^a (4=no disease) | 4^a (4=no disease) | 0^a (0=60-100% of disease on untreated plants) |  |  | 
CO/C=C(/C(=O)OC)c1ccccc1Oc1cc(O/N=C(\C)c2ccccc2)ncn1 [403 of Table I] |  |  |  |  |  |  |  |  |  |  | 0^a (0=60-100% of disease on untreated plants) | 0^a (0=60-100% of disease on untreated plants) |  | 4^a (4=no disease) | 4^a (4=no disease) | 1^a (1=26-59% of disease on untreated plants) | 4^b (4=no disease) | 0^a (0=60-100% of disease on untreated plants) | 
CO/C=C(/C(=O)OC)c1ccccc1Oc1cc(OCCSc2ccccc2)ncn1 [391 of Table I] | 4 (4=no disease) | 4 (4=no disease) | 3 (3=trace-5% of disease on untreated plants) | 4 (4=no disease) | 4 (4=no disease) | 4 (4=no disease) | 4 (4=no disease) | 4 (4=no disease) |  |  |  |  |  |  |  |  |  |  | 
CO/C=C(/C(=O)OC)c1ccccc1Oc1cc(OCCOc2ccc(C#N)cc2)ncn1 [390 of Table I] | 4 (4=no disease) | 3 (3=trace-5% of disease on untreated plants) | 4 (4=no disease) | 1 (1=26-59% of disease on untreated plants) | 4 (4=no disease) | 4 (4=no disease) | 0 (0=60-100% of disease on untreated plants) | 3 (3=trace-5% of disease on untreated plants) |  |  |  |  |  |  |  |  |  |  | 
CO/C=C(/C(=O)OC)c1ccccc1Oc1cc(OCc2ccc([N+](=O)[O-])cc2)ncn1 [133 of Table I] | 4 (4=no disease) | 4 (4=no disease) | 3 (3=trace-5% of disease on untreated plants) | 4 (4=no disease) | 3 (3=trace-5% of disease on untreated plants) | 4 (4=no disease) | 0 (0=60-100% of disease on untreated plants) |  |  |  |  |  |  |  |  |  |  |  | 
CO/C=C(/C(=O)OC)c1ccccc1Oc1cc(OCC#Cc2ccccc2)ncn1 [387 of Table I] | 4 (4=no disease) | 4 (4=no disease) | 4 (4=no disease) | 4 (4=no disease) | 4 (4=no disease) | 4 (4=no disease) | 4 (4=no disease) | 4 (4=no disease) |  |  |  |  |  |  |  |  |  |  | 
CO/C=C(/C(=O)OC)c1ccccc1Oc1cc(OCc2ccccn2)ncn1 [222 of Table I] | 4 (4=no disease) |  | 4 (4=no disease) |  | 4 (4=no disease) | 4 (4=no disease) | 0 (0=60-100% of disease on untreated plants) | 3 (3=trace-5% of disease on untreated plants) |  |  |  |  |  |  |  |  |  |  | 4 (4=no disease)
CO/C=C(/C(=O)OC)c1ccccc1Oc1cc(OCCCc2ccccc2Cl)ncn1 [384 of Table I] | 4 (4=no disease) | 4 (4=no disease) |  | 4 (4=no disease) | 4 (4=no disease) | 4 (4=no disease) | 4 (4=no disease) | 4 (4=no disease) |  |  |  |  |  |  |  |  |  |  | 
CO/C=C(/C(=O)OC)c1ccccc1Oc1cc(OCc2cccnc2)ncn1 [229 of Table I] | 4 (4=no disease) |  | 4 (4=no disease) |  | 4 (4=no disease) | 4 (4=no disease) | 3 (3=trace-5% of disease on untreated plants) | 4 (4=no disease) |  |  |  |  |  |  |  |  |  |  | 4 (4=no disease)
